Patent US20260250325A1, “Antiviral Polypeptide Membrane Fusion Inhibitor, and Preparation Method and Application Thereof” (priority 2025, published 2026)
Where a SMILES comes first, the peptide text is derived from it. The star is where a group is joined. Succinyl(4-O-cholesteryl) = CC(C)CCC[C@@H](C)[C@H]1CC[C@H]2[C@@H]3CC=C4C[C@@H](OC(=O)CCC(=O)*)CC[C@]4(C)[C@H]3CC[C@]12C

Tests used:
[1] = Cytotoxicity test in HEp-2 cells (CCK8 cell viability); format: cell-based; conditions: human; HEp-2 cells, CCK8, 1 day; read-out: CC50
How it was run: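 HEp-2 cells seeded at 30,000/well, cultured overnight at 37° C./5% CO2, then exposed to diluted compound for 1 day in 0.5% DMSO. Viability read by CCK8, normalised to untreated-cell and medium-only controls; CC50 from four-parameter variable-slope fit.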

hPIV3 C243 virus strain = format: cell-based, hPIV; conditions: LLC-MK2 cells, hPIV3 C243, plaque reduction; read-out: EC50 against hPIV3 virus
Method: Rhesus monkey kidney cells (LLC-MK2) were sourced from the ATCC, with a catalog number CCL-7.1. The cells were cultured in a DMEM culture solution in which 10% fetal bovine serum, 1% non-essential amino acids, 1% sodium pyruvate, 1% L-glutamine, 100 U/ml penicillin, and 100 μg/ml streptomycin were added.
An HPIV-3 plaque experiment culture medium consisted of a DMEM culture solution added with 2% fetal bovine serum, 1% non-essential amino acids, 1% sodium pyruvate, 1% L-glutamine, 100 U/ml penicillin, and 100 μg/ml streptomycin.
The hPIV Type 3 (hPIV3 C243) was sourced from the ATCC, with a catalog number VR-93.
This study used the plaque reduction experiment to detect the in-vitro activity of the test sample against the hPIV3 C243 virus strain, and Human Anti-HPIV3 Monoclonal Antibody, clone PIA174 was an experimental system control. The test sample and a system experimental antibody were tested at 8 concentrations in duplicated wells.
The LLC-MK2 cells were digested with trypsin and then diluted to a concentration of 400,000 cells per milliliter by using a cell culture solution containing 2% serum. The diluted cells were added to a 96-well cell test board, with 100 μL per well, corresponding to 40,000 cells per well. The cells were cultured overnight in a 37° C. incubator with 5% CO2.
On the next day, the sample diluted at a fold ratio and an equal volume of virus (approximately 200 PFU per well) were well mixed and incubated at 37° C. in 5% CO2 for 1 hour. Then, the culture solution in the 96-well cell test board was discarded, the sample virus mixed solution (100 μL) was added to the 96-well cell culture plate, and incubated at 37° C. in 5% CO2 for 2 hours. After 2 h, the sample virus mixed solution was discarded, 200 μL of an experiment culture medium containing the test sample with a corresponding concentration was added, and the culture solution contained 0.8% CMC. A final concentration of DMSO in the culture solution was 0.5%. A control antibody was directly added to the experiment culture solution containing 0.8% CMC. A cell control (cells, without compound treatment or viral infection) and a viral control (cell infection virus, without compound treatment) were set. The cells were cultured for 1 day in the 37° C. incubator with 5% CO2.
The cells were fixed with 4% paraformaldehyde, and then permeabilization was performed with 0.5% Triton X-100. After the plate was washed with DPBS, a hPIV specific antibody (1:2000 dilution) was added and incubated at 37° C. for 1.5 h. Then, a secondary antibody (1:500 dilution) was added and incubated at 37° C. for 1 hour. The secondary antibody was discarded, a TrueBlue solution was added, dyeing was performed for approximately 10 minutes; and the plate was washed with running water and then air-dried, and the number of spots in each well was counted by using a microplate imaging counter.
Raw data was used for calculating the antiviral activity of the samples, and a calculation formula was shown as follows.
% inhibition rate=100−(sample value-cell control average value)/(virus control average value-cell control average value)×100
Non-linear fitting analysis was performed on the inhibition rate of the sample by using GraphPad Prism (version 10), so as to calculate an EC50 value for the sample. A fitting formula was log (inhibitor) vs. response-Variable slope (four parameters).

Compound	CC50 at 1 day [1] [nM]	EC50 (hPIV3 C243 virus strain) [nM]
CC[C@H](C)[C@H](NC(=O)[C@H](CCCCN)NC(=O)[C@H](CCCCN)NC(=O)[C@H](CC(C)C)NC(=O)[C@H](CO)NC(=O)[C@H](CCC(=O)O)NC(=O)[C@H](CCC(=O)O)NC(=O)[C@@H](NC(=O)[C@H](CCCCN)NC(=O)[C@H](CCCCN)NC(=O)[C@H](CC(N)=O)NC(=O)[C@@H](NC(=O)[C@H](CCC(=O)O)NC(=O)[C@H](CCC(=O)O)NC(=O)[C@@H](NC(=O)[C@H](CCCCN)NC(=O)[C@H](CCCCN)NC(=O)[C@H](CC(=O)O)NC(=O)[C@H](Cc1ccccc1)NC(=O)[C@H](CCC(=O)O)NC(=O)[C@H](CC(=O)O)NC(=O)[C@H](CO)NC(C)=O)[C@@H](C)CC)C(C)C)[C@@H](C)CC)C(=O)N[C@@H](CCC(=O)O)C(=O)N[C@@H](CCC(=O)O)C(=O)N[C@@H](CO)C(=O)N[C@@H](CC(=O)O)C(=O)N[C@@H](CCCCN)C(=O)N[C@@H](CCCCN)C(=O)N[C@@H](CC(C)C)C(=O)N[C@@H](CCC(=O)O)C(=O)N[C@@H](C)C(=O)N[C@@H](C)C(=O)N[C@@H](C)C(=O)N[C@@H](CCCCN)C(=O)N[C@@H](CCCCNC(=O)CCC(=O)O[C@H]1CC[C@@]2(C)C(=CC[C@H]3[C@@H]4CC[C@H]([C@H](C)CCCC(C)C)[C@@]4(C)CC[C@@H]32)C1)C(N)=O [Compound 16] (Ac-SDEFDKKIEEVNKKIEESLKKIEESDKKLEAAAKK(Succinyl(4-O-cholesteryl))-NH2)	17100	59
Ac-FDEEISQVNEKINQSLAFIRKSDELLHNVNAGKSTTEAAAKK(Succinyl(4-O-cholesteryl))-NH2 [Compound 26]	> 100000	1.35
CC[C@H](C)[C@H](NC(=O)[C@H](CO)NC(=O)[C@H](C)NC(=O)[C@H](CC(=O)O)NC(=O)[C@H](Cc1ccccc1)NC(=O)[C@H](CCC(=O)O)NC(=O)[C@H](CC(=O)O)NC(C)=O)C(=O)N[C@@H](CO)C(=O)N[C@@H](CCC(N)=O)C(=O)N[C@H](C(=O)N[C@@H](CC(N)=O)C(=O)N[C@@H](CCC(=O)O)C(=O)N[C@@H](CCCCN)C(=O)N[C@H](C(=O)N[C@@H](CC(N)=O)C(=O)N[C@@H](CCC(N)=O)C(=O)N[C@@H](CO)C(=O)N[C@@H](CC(C)C)C(=O)N[C@@H](CCC(=O)O)C(=O)N[C@@H](CCC(=O)O)C(=O)N[C@H](C(=O)N[C@@H](CCCNC(=N)N)C(=O)N[C@@H](CCCCN)C(=O)N[C@@H](CO)C(=O)N[C@@H](CC(=O)O)C(=O)N[C@@H](CCC(=O)O)C(=O)N[C@@H](CC(C)C)C(=O)N[C@@H](CC(C)C)C(=O)N[C@@H](Cc1c[nH]cn1)C(=O)N[C@@H](CC(N)=O)C(=O)N[C@@H](CCC(=O)O)C(=O)N[C@@H](C)C(=O)N[C@@H](C)C(=O)N[C@@H](C)C(=O)N[C@@H](CCCCN)C(=O)N[C@@H](CCCCNC(=O)CCC(=O)O[C@H]1CC[C@@]2(C)C(=CC[C@H]3[C@@H]4CC[C@H]([C@H](C)CCCC(C)C)[C@@]4(C)CC[C@@H]32)C1)C(N)=O)[C@@H](C)CC)[C@@H](C)CC)C(C)C [Compound 28] (Ac-DEFDASISQVNEKINQSLEEIRKSDELLHNEAAAKK(Succinyl(4-O-cholesteryl))-NH2)	8800	54.4
CC[C@H](C)[C@H](NC(=O)[C@H](CCCCN)NC(=O)[C@H](CCCCN)NC(=O)[C@H](CC(C)C)NC(=O)[C@H](CO)NC(=O)[C@H](CCC(=O)O)NC(=O)[C@H](CCC(=O)O)NC(=O)[C@@H](NC(=O)[C@H](CCCCN)NC(=O)[C@H](CCCCN)NC(=O)[C@H](CC(N)=O)NC(=O)[C@@H](NC(=O)[C@H](CCC(=O)O)NC(=O)[C@H](CCC(=O)O)NC(=O)[C@@H](NC(=O)[C@H](CCCCN)NC(=O)[C@H](CCCCN)NC(=O)[C@H](CC(=O)O)NC(=O)[C@H](Cc1ccccc1)NC(=O)[C@H](CCC(=O)O)NC(=O)[C@H](CC(=O)O)NC(=O)[C@H](Cc1c[nH]c2ccccc12)NC(C)=O)[C@@H](C)CC)C(C)C)[C@@H](C)CC)C(=O)N[C@@H](CCC(=O)O)C(=O)N[C@@H](CCC(=O)O)C(=O)N[C@@H](CO)C(=O)N[C@@H](CC(=O)O)C(=O)N[C@@H](CCCCN)C(=O)N[C@@H](CCCCN)C(=O)N[C@@H](CC(C)C)C(=O)N[C@@H](Cc1c[nH]cn1)C(=O)N[C@@H](CC(N)=O)C(=O)N[C@H](C(=O)N[C@@H](CCC(=O)O)C(=O)N[C@@H](C)C(=O)N[C@@H](C)C(=O)N[C@@H](C)C(=O)N[C@@H](CCCCN)C(=O)N[C@@H](CCCCNC(=O)CCC(=O)O[C@H]1CC[C@@]2(C)C(=CC[C@H]3[C@@H]4CC[C@H]([C@H](C)CCCC(C)C)[C@@]4(C)CC[C@@H]32)C1)C(N)=O)C(C)C [Compound 44] (Ac-WDEFDKKIEEVNKKIEESLKKIEESDKKLHNVEAAAKK(Succinyl(4-O-cholesteryl))-NH2)	26500	27.9
CC[C@H](C)[C@H](NC(=O)[C@H](CCCCN)NC(=O)[C@H](CCCCN)NC(=O)[C@H](CC(C)C)NC(=O)[C@H](CO)NC(=O)[C@H](CCC(=O)O)NC(=O)[C@H](CCC(=O)O)NC(=O)[C@@H](NC(=O)[C@H](CCCCN)NC(=O)[C@H](CCCCN)NC(=O)[C@H](CC(N)=O)NC(=O)[C@@H](NC(=O)[C@H](CCC(=O)O)NC(=O)[C@H](CCC(=O)O)NC(=O)[C@@H](NC(=O)[C@H](CCCCN)NC(=O)[C@H](CCCCN)NC(=O)[C@H](CC(=O)O)NC(=O)[C@H](Cc1ccccc1)NC(=O)[C@H](CCC(=O)O)NC(=O)[C@H](CC(=O)O)NC(=O)[C@H](Cc1c[nH]c2ccccc12)NC(C)=O)[C@@H](C)CC)C(C)C)[C@@H](C)CC)C(=O)N[C@@H](CCC(=O)O)C(=O)N[C@@H](CCC(=O)O)C(=O)N[C@@H](CO)C(=O)N[C@@H](CC(=O)O)C(=O)N[C@@H](CCCCN)C(=O)N[C@@H](CCCCN)C(=O)N[C@@H](CC(C)C)C(=O)N[C@@H](CCC(=O)O)C(=O)N[C@@H](CCC(=O)O)C(=O)N[C@H](C(=O)N[C@@H](CC(N)=O)C(=O)N[C@@H](C)C(=O)N[C@@H](CCC(=O)O)C(=O)N[C@@H](C)C(=O)N[C@@H](C)C(=O)N[C@@H](C)C(=O)N[C@@H](CCCCN)C(=O)N[C@@H](CCCCNC(=O)CCC(=O)O[C@H]1CC[C@@]2(C)C(=CC[C@H]3[C@@H]4CC[C@H]([C@H](C)CCCC(C)C)[C@@]4(C)CC[C@@H]32)C1)C(N)=O)C(C)C [Compound 40] (Ac-WDEFDKKIEEVNKKIEESLKKIEESDKKLEEVNAEAAAKK(Succinyl(4-O-cholesteryl))-NH2)	13000	22.2
Ac-SLEQVNEKINQSLAFIRKSDEINQSDEEVNKSDELLEAAAKK-NH2 [Compound 50]	32600	34.8
CC[C@H](C)[C@H](NC(=O)[C@H](CCCCN)NC(=O)[C@H](CCC(=O)O)NC(=O)[C@H](CC(C)C)NC(=O)[C@H](CO)NC(=O)[C@H](CCC(N)=O)NC(=O)[C@H](CC(N)=O)NC(=O)[C@@H](NC(=O)[C@H](CCCCN)NC(=O)[C@H](CCC(=O)O)NC(=O)[C@H](CC(N)=O)NC(=O)[C@@H](NC(=O)[C@H](CCC(N)=O)NC(=O)[C@H](CO)NC(=O)[C@H](C)NC(=O)[C@H](CC(=O)O)NC(=O)[C@H](Cc1ccccc1)NC(=O)[C@@H](NC(=O)[C@H](CC(C)C)NC(=O)[C@H](CCC(=O)O)NC(=O)[C@H](CC(=O)O)NC(=O)[C@H](Cc1ccc(O)cc1)NC(C)=O)C(C)C)C(C)C)[C@@H](C)CC)C(=O)N[C@@H](CCCNC(=N)N)C(=O)N[C@@H](CCCCN)C(=O)N[C@@H](CO)C(=O)N[C@@H](CC(=O)O)C(=O)N[C@@H](CCC(=O)O)C(=O)N[C@@H](CC(C)C)C(=O)N[C@@H](CC(C)C)C(=O)N[C@@H](Cc1c[nH]cn1)C(=O)N[C@@H](CC(N)=O)C(=O)N[C@H](C(=O)N[C@@H](CCC(=O)O)C(=O)N[C@@H](C)C(=O)N[C@@H](C)C(=O)N[C@@H](C)C(=O)N[C@@H](CCCCN)C(=O)N[C@@H](CCCCNC(=O)CCC(=O)O[C@H]1CC[C@@]2(C)C(=CC[C@H]3[C@@H]4CC[C@H]([C@H](C)CCCC(C)C)[C@@]4(C)CC[C@@H]32)C1)C(N)=O)C(C)C [Compound 30] (Ac-YDELVFDASQVNEKINQSLEKIRKSDELLHNVEAAAKK(Succinyl(4-O-cholesteryl))-NH2)	6200	48.2
